Test results from US10308916B2, “Omega-transaminase mutants with activity improvements toward ketones and methods for producing optically pure amines” (Industry-Academic Cooperation Foundation, Yonsei University, priority 2015, dated 2019).

Tests used:
Assay type in all cases: biochemical
[1] = system: OATA W58L
[2] = system: OATA W58L; details: pH 7
[3] = system: OATA W58L; remark: listed apart in the source
[4] = system: OATA W58A
[5] = system: OATA W58A; details: pH 7
[6] = system: OATA W58V; details: pH 7
[7] = system: OATA W58I; details: pH 7
[8] = system: OATA W58M; details: pH 7
[9] = system: OATA L57A/W58A/V154A

1-acetonaphthone [Ketone 1i]
Conversion (%) OATAW58L [1]: 75%
Relative activity to acetophenone, OATA W58L [2]: 47%

CC(N)CO (racemic) [DL-Alaninol]
Relative reactivity, OATA W58L [3]: 39%
Relative reactivity, OATA W58A [4]: 13%

CC(C)C(C)N (centres unmarked) [1,2-Dimethylpropylamine]
Relative reactivity, OATA W58L [3]: 305%
Relative reactivity, OATA W58A [4]: 101%

CC(C)CC(C)N (centres unmarked) [1,3-Dimethylbutylamine]
Relative reactivity, OATA W58L [3]: 283%
Relative reactivity, OATA W58A [4]: 173%

COCC(C)N (centres unmarked) [1-Methoxy-2-propylamine]
Relative reactivity, OATA W58L [3]: 119%
Relative reactivity, OATA W58A [4]: 126%

CC(N)CCc1ccccc1 (centres unmarked) [1-Methyl-3-phenylpropylamine]
Relative reactivity, OATA W58L [3]: 202%
Relative reactivity, OATA W58A [4]: 151%

CCC(=O)CO [1-hydroxy-2-butanone]
Relative activity to acetophenone, OATA W58A [5]: 9%
Relative activity to acetophenone, OATA W58V [6]: 8%
Relative activity to acetophenone, OATA W58I [7]: 16%
Relative activity to acetophenone, OATA W58M [8]: 21%

CC(C)(C)C(N)c1ccccc1 (centres unmarked) [2,2-Dimethyl-1-phenylpropan-1-amine]
Relative reactivity, OATA W58L [3]: 2%
Relative reactivity, OATA W58A [4]: 3%

CCCC(C)N (centres unmarked) [2-Aminopentane]
Relative reactivity, OATA W58L [3]: 272%
Relative reactivity, OATA W58A [4]: 194%

O=C(CO)c1ccccc1 [2-hydroxyacetophenone]
Relative activity to acetophenone, OATA W58A [5]: 61%
Relative activity to acetophenone, OATA W58V [6]: 70%
Relative activity to acetophenone, OATA W58I [7]: 73%
Relative activity to acetophenone, OATA W58M [8]: 65%

CC(=O)C(C)O (centres unmarked) [3-hydroxy-2-butanone]
Relative activity to acetophenone, OATA W58A [5]: 20%
Relative activity to acetophenone, OATA W58V [6]: 29%
Relative activity to acetophenone, OATA W58I [7]: 23%
Relative activity to acetophenone, OATA W58M [8]: 32%

CC(C)C(=O)C(=O)O [3-methyl-2-oxobutyric acid]
Relative activity, OATA L57A/W58A/V154A [9]: 11%

CC(N)c1ccc(F)cc1 (stereo not drawn) [4-Fluoro-α-methylbenzylamine]
Relative reactivity, OATA W58L [3]: 283%
Relative reactivity, OATA W58A [4]: 117%

CC(=O)CCO [4-hydroxy-2-butanone]
Relative activity to acetophenone, OATA W58A [5]: 17%
Relative activity to acetophenone, OATA W58V [6]: 20%
Relative activity to acetophenone, OATA W58I [7]: 20%
Relative activity to acetophenone, OATA W58M [8]: 29%

C[C@H](N)C1CC1 [(S)-1-Cyclopropylethylamine]
Relative reactivity, OATA W58L [3]: 233%
Relative reactivity, OATA W58A [4]: 79%

N[C@H]1CCc2ccccc21 [(S)-1-aminoindan]
Relative reactivity, OATA W58L [3]: 54%
Relative reactivity, OATA W58A [4]: 100%

CCCC[C@H](C)N [(S)-2-aminohexane]
Relative reactivity, OATA W58L [3]: 306%
Relative reactivity, OATA W58A [4]: 116%
